Reference: patent publication EP1348714B1, “Polypeptide useful as anti-allergic/antiasthmatic, methods for the preparation thereof and pharmaceutical compositions containing such polypeptide and their use” (COUNCIL OF SCIENTIFIC AND INDUSTRIAL RESEARCH, priority 2002, dated 2003)
Square brackets hold non-standard residues; d marks the D form. Peptide text beside a SMILES is read from it. Sar = CNCC(=O)O

Tests used:
[1] = tested on: passive cutaneous anaphylaxis (PCA); test: passive cutaneous anaphylaxis (PCA) test in rats; format: in vivo
Egg-albumin = test: aerosol test, egg-albumin challenge in sensitised guinea pigs; format: in vivo; details: dose 50 mg/kg (ip)
[2] = tested on: Normal mast cells (Noninnunological: Comp. 48/80); test: mast cell degranulation by comp 48/80 in normal mast cells; format: in vivo, rats; details: dose 50.0 pro (10.0 x 5 d) mg/kg x days
[3] = tested on: sensitised guinea pig ileum; test: antigen (egg albumin) induced contraction of sensitised guinea pig ileum (Schultz-Dale phenomenon)
[4] = tested on: Sensitised mast cells (Immunological: Egg albumin); test: mast cell degranulation by egg albumin in sensitised mast cells; format: in vivo, rats; details: dose 50.0 pro (10.0 x 5 d) mg/kg x days
[5] = other pharmacological studies (cardiovascular, CNS, anti-inflammatory, diuretic); format: in vivo; details: up to a dose of 10 mg/kg

## O=C([O-])c1cc(=O)c2c(OCC(O)COc3cccc4oc(C(=O)[O-])cc(=O)c34)cccc2o1.[Na+].[Na+] [DSCG, disodium cromoglycate]
[1]; rat, 50 mg/kg by nasal route
  anti PCA activity: 81%
[1]; rats, dose 50.0 mg/kg (IP)
  % Anti-PCA activity: 77%
Egg-albumin
  % Protection Egg-albumin: 64%
[2]
  % Protection: 72%
[3]; concentration 1.0 (unit not given)
  % Protection to ileum contraction induced by egg albumin: No block
[3]; concentration 2.0 (unit not given)
  % Protection to ileum contraction induced by egg albumin: 18%
[3]; concentration 3.0 (unit not given)
  % Protection to ileum contraction induced by egg albumin: 59%
[4]
  % Protection: 71%

## C[C@H](N)C(=O)NCC(=O)NCC(=O)N[C@@H](CC(=O)O)C(=O)N(C)CC(=O)N[C@@H](CCCCN)C(=O)O [96/199, L-alanyl-glycyl-glycyl-L-aspartyl-sar-L-1ys] (H-AGGD[Sar]K-OH)
[5]
  cardiovascular, Central Nervous System (CNS), anti-inflammatory, diuretic activities: No significant effects
